Measurements taken from patent US20220009914A1, “Analogs of Nitrofuran Antibiotics to Combat Resistance” (The Trustees of Indiana University, priority 2020, published 2022).
Read-outs that look alike come from different tables or passages of the source.

Columns and labels:
native MDH = molecular target: T1, native MDH (Sus scrofa, UniProt P00346); test: native MDH activity counter-screen in the presence of E. coli NfsB nitroreductase; assay type: biochemical, pig; conditions: with E. coli NfsB nitroreductase; read-out: Native MDH Activity w/NfsB IC50
T1 sequence (P00346 25-338): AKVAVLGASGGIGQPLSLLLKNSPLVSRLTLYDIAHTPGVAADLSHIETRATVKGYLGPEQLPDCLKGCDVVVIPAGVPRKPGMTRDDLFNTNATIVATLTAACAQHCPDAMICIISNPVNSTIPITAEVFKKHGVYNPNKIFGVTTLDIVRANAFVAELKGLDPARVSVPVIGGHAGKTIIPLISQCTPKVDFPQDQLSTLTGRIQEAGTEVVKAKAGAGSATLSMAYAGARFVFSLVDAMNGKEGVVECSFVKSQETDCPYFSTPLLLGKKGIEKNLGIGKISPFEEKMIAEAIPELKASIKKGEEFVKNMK
Protocol: Evaluating compounds for inhibition in the GroEL/ES-mediated dMDH refolding assay and native MDH activity counter-screen in the presence of E. coli NfsB nitroreductase. These assays were performed nearly identically to those mentioned above, but with a couple distinct modifications. […] The remainder of the assay was conducted as in our standard protocol where no NfsB nitroreductase was present. […] Results presented represent the averages of IC50 values obtained from at least four replicates in each assay.

[1] = tested on: NEB 5-alpha Escherichia coli; test: bacterial proliferation assay, E. coli; assay type: cell-based; conditions: read-out: Bacterial Proliferation EC50 E. coli
Protocol: All compounds were evaluated for inhibiting the proliferation of E. coli and each of the ESKAPE bacteria. Results presented represent the averages of EC50 values obtained from at least four replicates. Evaluating compounds for inhibition of bacterial cell proliferation.
Growth Media: E. coli were grown with LB medium and all ESKAPE bacteria were grown in Brain Heart Infusion (BHI) medium (Becton, Dickinson and Company), with all liquid cultures supplemented with 25 mg/L Ca^2+ and 12.5 mg/L Mg^2+ to mimic physiological free concentrations of these cations. A 10 mg/mL Ca^2+ stock solution was prepared by dissolving 1.84 g of CaCl2.2H2O in 50 mL of deionized water, and a 10 mg/mL Mg^2+ stock solution was prepared by dissolving 4.18 g of MgCl2.6H2O in 50 mL deionized water—filter sterilized using 0.2 μm cellulose-acetate filters. 2.5 mL of the sterile 10 mg/mL Ca^2+ stock and 1.25 mL of the sterile 10 mg/mL Mg^2+ stock solutions were added per 1 L of autoclaved LB or BHI media to obtain 25 mg/L Ca^2+ and 12.5 mg/L Mg^2+ ions, respectively.
General Assay Protocol: Stock bacterial cultures were streaked onto LB or BHI agar plates and grown overnight at 37° C. Fresh aliquots of cation supplemented media were inoculated with single bacterial colonies and the cultures were grown overnight at 37° C. with shaking (240 rpm). The following morning, cultures were diluted 10-fold into fresh media and grown at 37° C. until bacteria had reached mid-log phase growth (OD600˜0.4-0.6). The cultures were then diluted into fresh media to achieve final OD600 readings of 0.017. Aliquots of these diluted cultures (30 μL) were added to clear, flat-bottom 384-well polystyrene plates that were previously stamped with 0.5 μL of test compounds in 20 μL of media (yielding initial OD600=0.01 bacterial cultures). All compounds were tested in dose-response with concentration ranges during the proliferation assays from 100 μM to 46 nM (3-fold dilution series). A second set of baseline control plates were prepared analogously, but without any bacteria added, to correct for possible compound absorbance and/or precipitation. […] Plates were then read at 600 nm using a Molecular Devices SpectraMax Plus384 microplate reader. […] Results presented represent the averages of EC50 values obtained from at least four replicates.
Evaluating analogs for inhibiting the growth of E. coli and the ESKAPE bacteria. Analogs were initially tested for antibacterial efficacy against representative strains of antibiotic-sensitive E. coli and the ESKAPE bacteria. To determine compound efficacy, bacterial proliferation assays were carried out in liquid media culture supplemented with physiological concentrations of free calcium and magnesium cations. For these assays, bacterial cultures (OD600=0.01) were exposed to test compounds in 8-point, 3-fold dilution series (100 μM to 46 nM concentration range), in 384-well plates. After addition of compounds to cultures, the plates were sealed with Breathe-Easy gas permeable membranes and allowed to grow to mid-log phase (OD600˜0.4-0.6), whereupon final OD600 readings were taken to assess for bacterial growth and inhibition.

in vitro [2] = conditions: human
Protocol: (§1) Evaluating compound effects on the viability of human colon and small intestine cells. […] Evaluating compound effects on the viability of human colon and small intestine cells. Evaluation of compound cytotoxicities to FHC colon and FHs 74 Int small intestine cells were performed using Alamar Blue-based viability assays. […] FHs 74 Int cells were maintained in Hybri-care medium (ATCC 46-X) supplemented with 30 ng/mL recombinant epidermal growth factor (EGF) and 10% FBS (Midwest Scientific, USDAFBS).

in vitro [3] = conditions: human; remark: listed apart in the source
Protocol: as §1

Compound	IC50 (native MDH) [µM]	EC50 ([1]; Escherichia coli) [µM]	CC50 at 48 h (in vitro [2]) [µM]	CC50 at 48 h (in vitro [3]) [µM]	EC50 [1] [µM]
CCOc1ccc(S(=O)(=O)Nc2ccc(C(=O)N/N=C/c3ccc(O)c4ncccc34)cc2)cc1 [Compound 15, 4-ethoxy-N-(4-(2-((8-hydroxyquinolin-5-yl)methylene)hydrazine-1-carbonyl)phenyl)benzenesulfonamide]	> 56	> 100	–	–	–
CCOc1ccc(S(=O)(=O)Nc2ccc(C(=O)N/N=C/c3ccc([N+](=O)[O-])o3)cc2)cc1 [Compound 28, 4-ethoxy-N-(4-(2-((5-nitrofuran-2-yl)methylene)hydrazine-1-carbonyl)phenyl)benzenesulfonamide]	> 56	> 100	85	> 100	–
O=C(N/N=C/c1ccc([N+](=O)[O-])o1)c1ccc(NS(=O)(=O)c2cccs2)cc1 [Compound 26, N-(4-(2-((5-nitrofuran-2-yl)methylene)hydrazine-1-carbonyl)phenyl)thiophene-2-sulfonamide]	> 56	17	> 100	70	–
COc1ccc(C(=O)N/N=C/c2ccc(O)cc2)cc1 [Compound 35, N′-(4-hydroxybenzylidene)-4-methoxybenzohydrazide]	> 56	> 100	> 100	> 100	–
O=C(N/N=C/c1cccc2ccccc12)c1ccccc1 [Compound 34, N′-(naphthalen-1-ylmethylene)benzohydrazide]	> 56	> 100	> 100	> 100	–
O=C(N/N=C/c1cccc2ncccc12)c1ccccc1 [Compound 32, N′-(quinolin-5-ylmethylene)benzohydrazide]	> 56	> 100	> 100	> 100	–
CCN(CC)S(=O)(=O)c1cccc(C(=O)N/N=C/c2ccc([N+](=O)[O-])o2)c1 [Compound 25, N,N-diethyl-3-(2-((5-nitrofuran-2-yl)methylene)hydrazine-1-carbonyl)benzenesulfonamide]	> 56	> 100	> 100	> 100	–
CN(C)c1ccc(C(=O)N/N=C/c2ccc(O)c3ncccc23)cc1 [Compound 8, 4-(dimethylamino)-N′-((8-hydroxyquinolin-5-yl)methylene)benzohydrazide]	> 56	93	–	–	–
O=C(N/N=C/c1ccc(O)c2ncccc12)c1ccc(NS(=O)(=O)c2cccs2)cc1 [Compound 13, N-(4-(2-((8-hydroxyquinolin-5-yl)methylene)hydrazine-1-carbonyl)phenyl)thiophene-2-sulfonamide]	> 56	> 100	–	–	–
O=C(N/N=C/c1ccc(O)c2ccccc12)c1ccccc1 [Compound 30, N′-((4-hydroxynaphthalen-1-yl)methylene)benzohydrazide]	> 56	> 100	> 100	> 100	–
O=C(N/N=C/c1ccc(O)c2ncccc12)c1ccncc1 [Compound 6, N′-((8-hydroxyquinolin-5-yl)methylene)isonicotinohydrazide]	> 56	79	> 100	75	–
O=C1CN(/N=C/c2ccc(O)c3ncccc23)C(=O)N1 [Compound 2, 1-(((8-hydroxyquinolin-5-yl)methylene)amino)imidazolidine-2,4-dione]	> 56	80	> 100	> 100	–
O=[N+]([O-])c1ccc(O)c2ncccc12 [Nitroxoline, reference compound]	> 56	4	–	–	–
COc1ccc(C(=O)NN)cc1 [Compound 42, reference compound]	> 56	> 100	> 100	> 100	–
COc1ccc(C(=O)N/N=C/c2ccccc2)cc1 [Compound 37, N′-benzylidene-4-methoxybenzohydrazide]	> 56	> 100	> 100	> 100	–
O=C(N/N=C/c1ccc(O)c2ncccc12)c1ccc(Cl)s1 [Compound 4, 5-chloro-N′-((8-hydroxyquinolin-5-yl)methylene)thiophene-2-carbohydrazide]	> 56	> 100	–	–	–
O=C(N/N=C/c1ccc(O)c2ncccc12)c1cccc2ccccc12 [Compound 9, N′-((8-hydroxyquinolin-5-yl)methylene)-1-naphthohydrazide]	> 56	> 100	–	–	–
O=C(N/N=C/c1ccc([N+](=O)[O-])o1)c1ccccc1Oc1ccccc1 [Compound 23, N′-((5-nitrofuran-2-yl)methylene)-2-phenoxybenzohydrazide]	> 56	> 100	–	–	–
O=C(N/N=C/c1ccc([N+](=O)[O-])o1)c1cccc2ccccc12 [Compound 22, N′-((5-nitrofuran-2-yl)methylene)-1-naphthohydrazide]	> 56	41	–	–	–
O=C(N/N=C/c1ccc(O)c2ncccc12)c1cccc(Oc2ccccc2)c1 [Compound 11, N′-((8-hydroxyquinolin-5-yl)methylene)-3-phenoxybenzohydrazide]	> 56	> 100	–	–	–
CCN(CC)S(=O)(=O)c1cccc(C(=O)N/N=C/c2ccc(O)c3ncccc23)c1 [Compound 12, N,N-diethyl-3-(2-((8-hydroxyquinolin-5-yl)methylene)hydrazine-1-carbonyl)benzenesulfonamide]	> 56	99	–	–	–
COc1ccc(C(=O)N/N=C/c2ccc(O)c3ncccc23)cc1 [Compound 1, N′-((8-hydroxyquinolin-5-yl)methylene)-4-methoxybenzohydrazide]	> 56	> 100	–	–	–
O=C(N/N=C/c1ccc(O)c2ncccc12)c1ccccc1Oc1ccccc1 [Compound 10, N′-((8-hydroxyquinolin-5-yl)methylene)-2-phenoxybenzohydrazide]	> 56	> 100	–	–	–
O=C(N/N=C/c1ccc(O)c2ncccc12)c1ccccc1 [Compound 5, N′-((8-hydroxyquinolin-5-yl)methylene)benzohydrazide]	> 56	63	–	–	–
O=C(N/N=C/c1ccc(O)c2ncccc12)c1ccc(NS(=O)(=O)c2ccc(Br)cc2)cc1 [Compound 14, 4-bromo-N-(4-(2-((8-hydroxyquinolin-5-yl)methylene)hydrazine-1-carbonyl)phenyl)benzenesulfonamide]	> 56	≥ 100	–	–	> 100
O=C(N/N=C/c1ccc([N+](=O)[O-])o1)c1cccc(Oc2ccccc2)c1 [Compound 24, N′-((5-nitrofuran-2-yl)methylene)-3-phenoxybenzohydrazide]	> 56	> 100	–	–	–
